We go through eight molecules from PMC7787448, “Development of an orally-administrable tumor vasculature-targeting therapeutic using annexin A1-binding D-peptides” (PLoS ONE, 2021).

The test system of one assay is C6-Luc brain tumor. The assay can be described thus: Near infra-red fluorescence whole body imaging of IRDye-conjugated D-peptides in brain tumor-bearing mice. To be noted: IRDye 800CW conjugates, tail vein, nude mice with C6-Luc brain tumors, IVIS imaging 15 min to 144 h. It is filed as in vivo, mouse.
Assay [1] deals with T1, recombinant full-length ANXA1 (Homo sapiens, UniProt P04083).
T1 construct: Recombinant, full-length ANXA1 was expressed using the baculovirus expression system; honeybee melittin signal peptide (N, cleaved yes); His8-tag (N, cleaved yes); made in house; host or cells: Sf9 insect cells (baculovirus), secreted
T1 sequence (P04083 1-346): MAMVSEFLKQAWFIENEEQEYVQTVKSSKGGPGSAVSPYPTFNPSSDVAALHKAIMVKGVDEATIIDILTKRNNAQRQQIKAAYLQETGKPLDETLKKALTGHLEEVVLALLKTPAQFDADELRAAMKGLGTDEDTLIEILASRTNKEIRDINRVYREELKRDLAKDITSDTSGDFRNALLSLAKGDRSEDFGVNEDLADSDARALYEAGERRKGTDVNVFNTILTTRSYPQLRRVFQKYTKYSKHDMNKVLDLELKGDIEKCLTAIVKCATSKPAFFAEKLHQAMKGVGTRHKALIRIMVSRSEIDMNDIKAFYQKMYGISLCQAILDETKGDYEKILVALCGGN
Details: method as in PMID 32921792. The following applies: IF7 with ANXA1; cited from earlier work.

For assay [2], the target named is T2, synthetic human MC16 peptide (ANXA1 N-terminus) (Homo sapiens, UniProt P04083).
T2 construct: chemically synthesized ANXA1 N-terminus (1–15 residues plus a cysteine at 16); purchased Bio-Synthesis (Lewisville, TX); host or cells: chemical synthesis
The assay can be described thus: Plate binding assay of biotinylated dTIT7 to MC16-coated wells (streptavidin-peroxidase, A450). To be noted: N-terminal biotinylated dTIT7 added to MC16-coated plastic wells, peroxidase-streptavidin colour reaction, read-out: Kd of dTIT7 bound to WT MC16. On the procedure:
To assess dTIT7 binding, wells of Sulfhydryl-BIND Surface Maleimide plates (Corning) were coated 20 hours with wild type (WT) and mutant L-MC16 in water at 4°C. After washing with PBS containing 0.02% Tween 20 (PBST), wells were blocked 1 hour with 10% superblock (Thermo) in PBST at room temperature. Biotinylated dTIT7 (10 μg dissolved in 10% superblock in PBST (1 mL) prepared as above was added to each well at 100 μl/well and incubated 30 min at room temperature for. After three PBST washes, 100 μl streptavidin-peroxidase (0.2 μg/ml) in 10% superblock in PBST containing 2% bovine serum albumin was added to each well and incubated 30 min. After three PBST washes, 100 μL of the peroxidase substrate one-step-TMB (Thermo) was added and incubated until the color developed. The reaction was stopped by adding 100 μl 2N sulfuric acid, and absorbance at 450 nm monitored using an ELISA plate reader. […]
Fig 2 Binding of dTIT7 to an ANXA1 N-terminal domain peptide or to full-length ANXA1 protein. […] In A and B, biotinylated dTIT7 peptide (1 μg/mL) was added to each MC16-coated plastic well and binding of peptide to MC16 was detected by a peroxidase-conjugated streptavidin and peroxidase color reaction. […]

Assay [3] has as its target T3, ANXA1 N-terminal peptide L-MC16 (Homo sapiens).
T3 chain: MAMVSEFLKQAWFIEC
The assay can be described thus: plate binding assay (ELISA). In general terms: An ELISA detects its analyte on a solid surface through an enzyme-linked reagent.

The next assay concerns the target T4, Annexin A1 (Homo sapiens, UniProt P04083).
T4 chain: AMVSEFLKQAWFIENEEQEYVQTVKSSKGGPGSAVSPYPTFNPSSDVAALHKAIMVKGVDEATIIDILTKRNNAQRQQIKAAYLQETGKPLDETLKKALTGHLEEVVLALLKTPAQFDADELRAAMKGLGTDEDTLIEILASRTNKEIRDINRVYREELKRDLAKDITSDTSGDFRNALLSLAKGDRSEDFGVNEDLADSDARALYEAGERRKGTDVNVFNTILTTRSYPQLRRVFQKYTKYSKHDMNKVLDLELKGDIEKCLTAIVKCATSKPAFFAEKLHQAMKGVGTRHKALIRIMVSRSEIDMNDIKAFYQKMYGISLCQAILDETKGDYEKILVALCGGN
In words: QCM.

As usually defined, the Kd is the equilibrium constant for the complex coming apart.

Several values for one entry are separate records, joined by “and”; a condition that tells them apart may be missing. Equal values may be shown once. Non-standard residues stand in square brackets, D forms with d. Residues, ends and D or L forms follow the SMILES beside them. No end group written: not given here. *: point of attachment. Biotin = O=C1N[C@H]2[C@H](CS[C@H]2CCCCC(=O)*)N1

Procedure for C6-Luc brain tumor: C6-Luc cells (4.8 x10^4 in 4 μl PBS) were injected into the brain striatum of Balb/c nu/nu mice using a stereotaxic frame as described [20]. […] Five to seven days later, mice underwent imaging for luciferase-expressing tumors. To do so, 100μl luciferin (30 mg/ml PBS) was injected peritoneally, and then mice were anesthetized under isoflurane gas (20 ml/min) supplemented with oxygen (1 ml/min) and placed under a camera equipped with a Xenogen IVIS 200 imager at AIST animal facility. Photon numbers were measured for 1–10 sec or for 1 min.
Peptides were conjugated with IRDye 800CW maleimide (Li-Cor) through the cysteine residue at room temperature for 2 hours according to the manufacturer’s instruction. After reverse-phase HPLC purification, the conjugate was dissolved in DMSO and 6% glucose to a final concentration of 0.2 μM. The C6-Luc brain tumor model mouse was generated in nude mice as described above. When photon number reached 5x10^4, each IRDye-conjugated D-peptide (100 μl) was injected intravenously through the tail vein. Near infra-red fluorescence in the mouse was monitored 15 min after injection using an IVIS system and daily over 6 days.
Whole body imaging of infra-red fluorescence was monitored using an IVIS imager.

Consider `CSCC[C@@H](N)C(=O)N1CCC[C@@H]1C(=O)N[C@@H](C(=O)N[C@H](CC(C)C)C(=O)N[C@@H](C(=O)N[C@H](Cc1ccccc1)C(=O)N[C@H](CCCNC(=N)N)C(=O)O)[C@H](C)O)[C@H](C)O` [dMPT7] (H-[dM][dP][dT][dL][dT][dF][dR]-OH; N-terminus and C-terminus assumed), for which, in the assay on C6-Luc brain tumor, the “Localization of near infra-red fluorescence after intravenous injection” value (from here on “Localization”) was “signals in brain, kidney and other organs”. Regarding “IFLLWQR (linear all-L peptide; any N-terminal Cys/linker or conjugate left out) [IF7]”, the Kd in assay [1] is 0.0638 µM. On to `CC[C@@H](C)[C@@H](NC(=O)[C@H](N)[C@H](C)O)C(=O)N[C@@H](C(=O)N[C@H](Cc1c[nH]c2ccccc12)C(=O)N1CCC[C@@H]1C(=O)N[C@@H](C(=O)N[C@H](CCSC)C(=O)O)[C@H](C)O)[C@H](C)O` [dTIT7], for which, in assay [2], the Kd is 0.0085 µM and 0.00856 µM. Turning to `CC(C)C[C@@H](NC(=O)[C@@H](CC(C)C)NC(=O)[C@@H](CO)NC(=O)[C@H](NC(=O)[C@H]1CCCN1C(=O)[C@H](N)CO)[C@H](C)O)C(=O)N[C@H](Cc1ccccc1)C(=O)O` [dSPT7] (H-[dS][dP][dT][dS][dL][dL][dF]-OH; N-terminus and C-terminus assumed), in the assay on C6-Luc brain tumor, the “Localization” value was “signals in brain, kidney and other organs”. Consider `CC(C)C[C@@H](N)C(=O)N[C@H](CC(C)C)C(=O)N[C@H](CO)C(=O)N[C@H](Cc1c[nH]c2ccccc12)C(=O)N1CCC[C@@H]1C(=O)N[C@H](CO)C(=O)N[C@H](C)C(=O)O` [dLLS7] (H-[dL][dL][dS][dW][dP][dS][dA]-OH; N-terminus and C-terminus assumed), for which, in the assay on C6-Luc brain tumor, the “Localization” value is “signals in brain, kidney and other organs”.

Biotin-[dT][dI][dT][dW][dP][dT][dM] came in with a Kd in assay [3] of 0.0085 µM. With [dT][dI][dT][dW][dP][dT][dM], binding in the assay with Annexin A1 was put at a Kd of 0.0466 µM. For [dL][dR][dF][dP][dT][dV][dL] [dLRF7], in the assay with Annexin A1, binding was characterised by a dissociation constant (Kd) of 0.0312 µM.
